From US6552216B1, “Molecular model for VLA-4 inhibitors” (Biogen, Inc., priority 1996, dated 2003)

Biological target: VLA-4 (Homo sapiens, UniProt P05556+P13612)
Test: VLA-4 direct binding assay (DBA)
Excerpt: (§1) Those skilled in the art routinely perform such assays, and can readily determine the activity of the experimental compound.
as §1

Chain of VLA-4 (P13612 34-1032): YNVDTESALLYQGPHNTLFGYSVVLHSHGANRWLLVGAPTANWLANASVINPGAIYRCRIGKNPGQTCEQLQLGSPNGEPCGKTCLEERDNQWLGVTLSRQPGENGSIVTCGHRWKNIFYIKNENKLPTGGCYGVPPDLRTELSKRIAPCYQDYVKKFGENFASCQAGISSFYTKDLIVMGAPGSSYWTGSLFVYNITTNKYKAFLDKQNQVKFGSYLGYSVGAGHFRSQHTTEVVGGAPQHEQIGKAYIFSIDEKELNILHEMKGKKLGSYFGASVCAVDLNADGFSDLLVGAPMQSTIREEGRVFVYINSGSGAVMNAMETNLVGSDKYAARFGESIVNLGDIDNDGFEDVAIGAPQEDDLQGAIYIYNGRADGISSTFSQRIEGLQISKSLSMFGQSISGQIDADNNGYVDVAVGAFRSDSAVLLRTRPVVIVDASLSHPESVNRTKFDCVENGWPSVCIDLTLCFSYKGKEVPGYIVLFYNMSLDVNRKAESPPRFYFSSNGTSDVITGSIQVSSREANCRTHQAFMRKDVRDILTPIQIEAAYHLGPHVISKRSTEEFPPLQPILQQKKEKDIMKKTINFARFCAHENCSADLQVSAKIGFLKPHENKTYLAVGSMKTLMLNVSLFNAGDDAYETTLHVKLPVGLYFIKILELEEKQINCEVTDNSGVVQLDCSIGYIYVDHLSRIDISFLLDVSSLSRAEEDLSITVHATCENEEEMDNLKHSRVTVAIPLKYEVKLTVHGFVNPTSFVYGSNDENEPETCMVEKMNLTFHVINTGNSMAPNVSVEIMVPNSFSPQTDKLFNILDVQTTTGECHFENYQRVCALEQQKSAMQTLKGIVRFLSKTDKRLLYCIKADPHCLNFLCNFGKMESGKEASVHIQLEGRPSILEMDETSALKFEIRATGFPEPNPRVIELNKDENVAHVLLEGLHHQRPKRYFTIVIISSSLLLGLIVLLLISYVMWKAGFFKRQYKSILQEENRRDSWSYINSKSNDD
Chain of VLA-4 (P05556 21-798): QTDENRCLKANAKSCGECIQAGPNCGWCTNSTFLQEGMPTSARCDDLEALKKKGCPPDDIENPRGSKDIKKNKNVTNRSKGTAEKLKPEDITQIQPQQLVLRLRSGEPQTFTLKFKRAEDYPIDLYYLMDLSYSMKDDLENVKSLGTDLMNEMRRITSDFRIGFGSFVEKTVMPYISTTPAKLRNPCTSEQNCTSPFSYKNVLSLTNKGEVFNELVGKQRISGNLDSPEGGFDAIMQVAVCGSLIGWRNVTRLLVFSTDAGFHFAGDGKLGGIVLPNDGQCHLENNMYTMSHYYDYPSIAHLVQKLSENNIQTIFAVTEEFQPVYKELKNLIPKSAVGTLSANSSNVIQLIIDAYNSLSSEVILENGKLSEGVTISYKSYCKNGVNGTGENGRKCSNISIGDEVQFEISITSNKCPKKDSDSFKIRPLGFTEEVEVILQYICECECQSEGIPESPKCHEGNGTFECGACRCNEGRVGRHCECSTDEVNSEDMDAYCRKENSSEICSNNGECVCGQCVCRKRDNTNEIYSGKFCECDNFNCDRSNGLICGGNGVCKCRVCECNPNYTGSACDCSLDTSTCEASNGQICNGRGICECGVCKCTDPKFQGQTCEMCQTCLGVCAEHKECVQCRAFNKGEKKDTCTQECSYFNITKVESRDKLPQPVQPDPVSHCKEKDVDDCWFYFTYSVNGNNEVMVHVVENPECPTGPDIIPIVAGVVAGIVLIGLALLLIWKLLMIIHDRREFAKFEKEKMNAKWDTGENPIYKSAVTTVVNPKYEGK

IC50: 2 µM
SMILES: CC(C)C[C@H](NC(=O)Cc1ccccc1)C(=O)N[C@@H](CC(=O)O)C(=O)N[C@H](C(=O)N1CCC[C@H]1C(=O)O)C(C)C [Phenylacetyl-Leu-Asp-Val-Pro]
